Results as given in patent publication US10577363B2, “Substituted piperidine compounds” (EPIZYME, INC., priority 2014, dated 2020).

Legend:
SMYD3 [1] = target: T1, SMYD3 (Homo sapiens (Human), UniProt Q9H7B4); test: SMYD3 biochemical assay (SPA, 3H-SAM methylation of MEKK2 protein substrate); settings: read-out: SMYD3 Biochem IC50*
Method in brief: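 Native full-length human SMYD3 (E. coli-expressed, tags removed) was preincubated with compound for 30 min at room temperature in 25 mM Tris-Cl pH 8.0, 1 mM TCEP, 0.005% BSG, 0.005% Tween 20. Reaction was started with 3H-SAM plus GST-MEKK2, quenched with 100 uM unlabeled SAM, and read by SPA scintillation counting.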

SMYD3 [2] = target: T1, SMYD3; test: SMYD3 cell assay (Trimethyl-MEKK2 In-Cell Western in 293T/17 cells); type: cell-based; settings: read-out: SMYD3 Cell IC50*
Method in brief: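 In-Cell Western ratio of trimethyl-Lys260 MEKK2 to anti-flag signal; percent inhibition from DMSO and maximum-inhibition controls, IC50 by non-linear regression, triplicates.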

T1 sequence (Q9H7B4 whole entry): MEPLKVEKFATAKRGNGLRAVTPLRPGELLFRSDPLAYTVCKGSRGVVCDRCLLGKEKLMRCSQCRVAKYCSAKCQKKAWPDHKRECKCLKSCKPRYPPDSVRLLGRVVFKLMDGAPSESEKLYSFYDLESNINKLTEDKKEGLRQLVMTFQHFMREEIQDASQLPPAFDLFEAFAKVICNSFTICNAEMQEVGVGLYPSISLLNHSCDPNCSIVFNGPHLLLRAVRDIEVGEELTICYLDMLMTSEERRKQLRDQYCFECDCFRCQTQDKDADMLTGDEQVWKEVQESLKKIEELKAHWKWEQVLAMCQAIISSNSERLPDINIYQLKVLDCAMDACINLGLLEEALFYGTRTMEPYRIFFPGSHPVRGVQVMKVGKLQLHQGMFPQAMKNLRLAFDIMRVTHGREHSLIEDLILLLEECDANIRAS

| SMILES | IC50 (SMYD3 [1]) [µM] | IC50 (SMYD3 [2]) [µM] |
| --- | --- | --- |
| CN1CC2CC1CN2S(=O)(=O)N1[C@@H]2CC[C@H]1C[C@@H](NC(=O)c1cc(C3CC3)on1)C2 [compound 864, 5-cyclopropyl-N-((1R,3r,5S)-8-((5-methyl-2,5-diazabicyclo[2.2.1]heptan-2-yl)sulfonyl)-8-azabicyclo[3.2.1]octan-3-yl)isoxazole-3-carboxamide] | 0.00822 | 0.0862 |
| CCNC1CCN(S(=O)(=O)N2[C@@H]3CC[C@H]2C[C@@H](NC(=O)c2cc(C4CC4)on2)C3)CC1 [compound 865, 5-cyclopropyl-N-((1R,3r,5S)-8-((4-(ethylamino)piperidin-1-yl)sulfonyl)-8-azabicyclo[3.2.1]octan-3-yl)isoxazole-3-carboxamide] | 0.00855 | 0.0902 |
| CC(C)CN1C2CCC1CN(S(=O)(=O)N1[C@@H]3CC[C@H]1C[C@@H](NC(=O)c1cc(C4CC4)on1)C3)C2 [compound 866, 5-cyclopropyl-N-((1R,3r,5S)-8-((8-isobutyl-3,8-diazabicyclo[3.2.1]octan-3-yl)sulfonyl)-8-azabicyclo[3.2.1]octan-3-yl)isoxazole-3-carboxamide] | 0.00863 | 0.201 |
| O=C(N[C@H]1C[C@H]2CC[C@@H](C1)N2S(=O)(=O)N1CC2CCC(C1)N2CCc1ccccc1)c1cc(C2CC2)on1 [compound 867, 5-cyclopropyl-N-((1R,3r,5S)-8-((8-phenethyl-3,8-diazabicyclo[3.2.1]octan-3-yl)sulfonyl)-8-azabicyclo[3.2.1]octan-3-yl)isoxazole-3-carboxamide] | 0.00867 | 0.844 |
| O=C(N[C@H]1C[C@H]2CC[C@@H](C1)N2S(=O)(=O)N1CCC(NCCCN2CCCC2)CC1)c1cc(C2CC2)on1 [compound 868, 5-cyclopropyl-N-((1R,3r,5S)-8-((4-((3-(pyrrolidin-1-yl)propyl)amino)piperidin-1-yl)sulfonyl)-8-azabicyclo[3.2.1]octan-3-yl)isoxazole-3-carboxamide] | 0.00868 | 0.31 |
| COCCCNC1CCN(S(=O)(=O)N2[C@@H]3CC[C@H]2C[C@@H](NC(=O)c2cc(C4CC4)on2)C3)CC1 [compound 869, 5-cyclopropyl-N-((1R,3r,5S)-8-((4-((3-methoxypropyl)amino)piperidin-1-yl)sulfonyl)-8-azabicyclo[3.2.1]octan-3-yl)isoxazole-3-carboxamide] | 0.00905 | 0.117 |
| COCCNC1CCN(S(=O)(=O)N2[C@@H]3CC[C@H]2C[C@@H](NC(=O)c2cc(C4CC4)on2)C3)CC1 [compound 870, 5-cyclopropyl-N-((1R,3r,5S)-8-((4-((2-methoxyethyl)amino)piperidin-1-yl)sulfonyl)-8-azabicyclo[3.2.1]octan-3-yl)isoxazole-3-carboxamide] | 0.00934 | 0.13 |
| CC(C)c1cc(C(=O)N[C@H]2C[C@H]3CC[C@@H](C2)N3S(=O)(=O)[C@H]2CC[C@H](N)CC2)no1 [compound 871, N-((1R,3R,5S)-8-(((1r,4R)-4-aminocyclohexyl)sulfonyl)-8-azabicyclo[3.2.1]octan-3-yl)-5-isopropylisoxazole-3-carboxamide] | 0.00938 | 0.0867 |
| CCN(CC)C1CCN(S(=O)(=O)N2CC[C@H](NC(=O)c3cc(C4CC4)on3)C[C@@H]2C)CC1 [compound 872, 5-cyclopropyl-N-((2S,4S)-1-((4-(diethylamino)piperidin-1-yl)sulfonyl)-2-methylpiperidin-4-yl)isoxazole-3-carboxamide] | 0.00946 | 0.183 |
| C[C@H]1CN(S(=O)(=O)[C@H]2CC[C@@H](N)CC2)CC[C@H]1NC(=O)c1cc(C2CC2)on1 [compound 873, N-((3S,4R)-1-(((1s,4R)-4-aminocyclohexyl)sulfonyl)-3-methylpiperidin-4-yl)-5-cyclopropylisoxazole-3-carboxamide] | 0.00962 | 0.169 |
| CN(CCCN1CCCC1)C1CCN(S(=O)(=O)N2[C@@H]3CC[C@H]2C[C@@H](NC(=O)c2cc(C4CC4)on2)C3)CC1 [compound 874, 5-cyclopropyl-N-((1R,3r,5S)-8-((4-(methyl(3-(pyrrolidin-1-yl)propyl)amino)piperidin-1-yl)sulfonyl)-8-azabicyclo[3.2.1]octan-3-yl)isoxazole-3-carboxamide] | 0.00987 | 0.237 |
| C[C@H](C1CCN(C)CC1)S(=O)(=O)N1[C@@H]2CC[C@H]1C[C@@H](NC(=O)c1cc(C3CC3)on1)C2 [compound 876, 5-cyclopropyl-N-((1R,3R,5S)-8-(((R)-1-(1-methylpiperidin-4-yl)ethyl)sulfonyl)-8-azabicyclo[3.2.1]octan-3-yl)isoxazole-3-carboxamide] | 0.01 | 0.186 |
| C[C@@H]1C[C@@H](NS(=O)(=O)N2[C@@H]3CC[C@H]2C[C@@H](NC(=O)c2cc(C4CC4)on2)C3)CCN1 [compound 877, 5-cyclopropyl-N-((1R,3S,5S)-8-(N-((2R,4S)-2-methylpiperidin-4-yl)sulfamoyl)-8-azabicyclo[3.2.1]octan-3-yl)isoxazole-3-carboxamide] | 0.01 | 0.176 |
| O=C(N[C@H]1C[C@H]2CC[C@@H](C1)N2S(=O)(=O)[C@@H]1CCCCNC1)c1cc(C2CC2)on1 [compound 878, N-((1R,3R,5S)-8-(((R)-azepan-3-yl)sulfonyl)-8-azabicyclo[3.2.1]octan-3-yl)-5-cyclopropylisoxazole-3-carboxamide] | 0.0101 | 0.241 |
| CC(C)c1cc(C(=O)N[C@H]2C[C@H]3CC[C@@H](C2)N3S(=O)(=O)CC2CCN(C)CC2)no1 [compound 879, 5-isopropyl-N-((1R,3r,5S)-8-(((1-methylpiperidin-4-yl)methyl)sulfonyl)-8-azabicyclo[3.2.1]octan-3-yl)isoxazole-3-carboxamide] | 0.0107 | 0.206 |
| CN(Cc1ccccc1)C1CCN(S(=O)(=O)N2[C@@H]3CC[C@H]2C[C@@H](NC(=O)c2cc(C4CC4)on2)C3)CC1 [compound 880, N-((1R,3r,5S)-8-((4-(benzyl(methyl)amino)piperidin-1-yl)sulfonyl)-8-azabicyclo[3.2.1]octan-3-yl)-5-cyclopropylisoxazole-3-carboxamide] | 0.0109 | 0.455 |
| O=C(N[C@H]1C[C@H]2CC[C@@H](C1)N2S(=O)(=O)N1CC2CCC(C1)N2CCO)c1cc(C2CC2)on1 [compound 881, 5-cyclopropyl-N-((1R,3r,5S)-8-((8-(2-hydroxyethyl)-3,8-diazabicyclo[3.2.1]octan-3-yl)sulfonyl)-8-azabicyclo[3.2.1]octan-3-yl)isoxazole-3-carboxamide] | 0.0109 | 0.0689 |
| C[C@@H](C1CCNCC1)S(=O)(=O)N1[C@@H]2CC[C@H]1C[C@@H](NC(=O)c1cc(C3CC3)on1)C2 [compound 882, 5-cyclopropyl-N-((1R,3S,5S)-8-(((S)-1-(piperidin-4-yl)ethyl)sulfonyl)-8-azabicyclo[3.2.1]octan-3-yl)isoxazole-3-carboxamide] | 0.0112 | 0.0856 |
| O=C(N[C@H]1C[C@H]2CC[C@@H](C1)N2S(=O)(=O)[C@H]1CCCCNC1)c1cc(C2CC2)on1 [compound 883, N-((1R,3S,5S)-8-(((S)-azepan-3-yl)sulfonyl)-8-azabicyclo[3.2.1]octan-3-yl)-5-cyclopropylisoxazole-3-carboxamide] | 0.012 | 0.128 |
| O=C(N[C@H]1C[C@H]2CC[C@@H](C1)N2S(=O)(=O)NC1CCN[C@@H](Cc2ccccc2)C1)c1cc(C2CC2)on1 (stereo partly drawn) [compound 884, N-((1R,3S,5S)-8-(N-((2S)-2-benzylpiperidin-4-yl)sulfamoyl)-8-azabicyclo[3.2.1]octan-3-yl)-5-cyclopropylisoxazole-3-carboxamide] | 0.0121 | 0.283 |
| CN[C@H]1CC[C@H](S(=O)(=O)N2CC[C@@H](NC(=O)c3cc(C4CC4)on3)[C@@H](C)C2)CC1 [compound 885, 5-cyclopropyl-N-((3S,4R)-3-methyl-1-(((1r,4S)-4-(methylamino)cyclohexyl)sulfonyl)piperidin-4-yl)isoxazole-3-carboxamide] | 0.0121 | 0.157 |
| C[C@H]1C[C@@H](NS(=O)(=O)N2[C@@H]3CC[C@H]2C[C@@H](NC(=O)c2cc(C4CC4)on2)C3)CCN1 [compound 886, 5-cyclopropyl-N-((1R,3S,5S)-8-(N-((2S,4S)-2-methylpiperidin-4-yl)sulfamoyl)-8-azabicyclo[3.2.1]octan-3-yl)isoxazole-3-carboxamide] | 0.0121 | 0.205 |
| CC1CN(S(=O)(=O)N2[C@@H]3CC[C@H]2C[C@@H](NC(=O)c2cc(C4CC4)on2)C3)CCN1 (stereo partly drawn) [compound 887, 5-cyclopropyl-N-((1R,3r,5S)-8-((3-methylpiperazin-1-yl)sulfonyl)-8-azabicyclo[3.2.1]octan-3-yl)isoxazole-3-carboxamide] | 0.0122 | 0.0878 |
| COCCCN1C2CCC1CN(S(=O)(=O)N1[C@@H]3CC[C@H]1C[C@@H](NC(=O)c1cc(C4CC4)on1)C3)C2 [compound 888, 5-cyclopropyl-N-((1R,3r,5S)-8-((8-(3-methoxypropyl)-3,8-diazabicyclo[3.2.1]octan-3-yl)sulfonyl)-8-azabicyclo[3.2.1]octan-3-yl)isoxazole-3-carboxamide] | 0.0124 | 0.118 |
| CCN(CC)C1CCN(S(=O)(=O)N2[C@@H]3CC[C@H]2C[C@@H](NC(=O)c2cc(C4CC4)on2)C3)CC1 [compound 889, 5-cyclopropyl-N-((1R,3r,5S)-8-((4-(diethylamino)piperidin-1-yl)sulfonyl)-8-azabicyclo[3.2.1]octan-3-yl)isoxazole-3-carboxamide] | 0.0127 | 0.216 |
